In patent publication US20240336657A1, “G-ALPHA-S PEPTIDE INHIBITORS AND USES THEREOF” (The Regents of the University of California, priority 2021, published 2024):
Values belong to the molecule of their own block, whether it stands above or below them. Positions of bridges follow the written chain, without caps; N, C: chain ends. Non-standard residues stand in square brackets, D forms with d. Residues, ends and D or L forms follow the SMILES beside them. *: point of attachment. NH(CH2CH2O)2(CH2)6Cl = ClCCCCCCOCCOCCN*

What was measured:
[1] = target: T1, GDP-bound Gαs (Homo sapiens, UniProt P63092); test: Bio-layer interferometry (BLI) binding kinetics; conditions: GDP/Gαs
T1 construct: hexahistidine (N, cleaved yes); made in house; host or cells: Escherichia coli BL21(DE3)
Description: (§1) BLI experiments were performed using an OctetRED384 instrument from ForteBio. All experiments were performed at 25° C. using BLI buffer (10 mM HEPES pH 7.4, 150 mM NaCl, 1 mM MgCl2, 0.05% Tween-20, 0.1% DMSO, 0.2 mM GppNHp or GDP). Cyclic peptides were diluted to a series of concentrations in BLI buffer plus 10 μM Biotin. Assays were conducted in Greiner 384well, black, flat bottom polypropylene plates containing the protein solutions, BLI buffer plus 10 μM Biotin for dissociation, and serial dilutions of cyclic peptides to be tested.
(§2) Biotinylated proteins were immobilized on Streptavidin biosensors by dipping sensors into plate wells containing protein solutions at a concentration of 100-150 nM. Protein loading is around 2-3 nm. Sensors loaded with proteins were moved and dipped into wells with BLI buffer plus 10 μM Biotin to block unlabeled Streptavidin. Association-dissociation cycles of compounds were started by moving and dipping sensors to cyclic peptides dilutions and BLI buffer plus 10 μM Biotin wells alternatively. Association and dissociation times were carefully determined to ensure full association and dissociation.
(§3) Raw kinetic data collected were processed with the Data Analysis software provided by the manufacturer using single reference subtraction in which buffer-only reference was subtracted (For GN13 analysis). Because GD20 analogs have a low level of background binding, we used a double reference subtraction (buffer-only reference and non-protein-loading reference) method to calculate their kinetics values. The resulting data were analyzed based on a 1:1 binding model from which kon and koff values were obtained and then Kd values were calculated.

[2] = target: T2, GDP-bound Gαi1 (Homo sapiens, UniProt P63096); test: Bio-layer interferometry (BLI) binding; conditions: highest concentration tested
T2 construct: hexahistidine (N, cleaved yes); made in house; host or cells: Escherichia coli BL21(DE3)
T2 sequence (P63096 with tags, fused parts or gaps): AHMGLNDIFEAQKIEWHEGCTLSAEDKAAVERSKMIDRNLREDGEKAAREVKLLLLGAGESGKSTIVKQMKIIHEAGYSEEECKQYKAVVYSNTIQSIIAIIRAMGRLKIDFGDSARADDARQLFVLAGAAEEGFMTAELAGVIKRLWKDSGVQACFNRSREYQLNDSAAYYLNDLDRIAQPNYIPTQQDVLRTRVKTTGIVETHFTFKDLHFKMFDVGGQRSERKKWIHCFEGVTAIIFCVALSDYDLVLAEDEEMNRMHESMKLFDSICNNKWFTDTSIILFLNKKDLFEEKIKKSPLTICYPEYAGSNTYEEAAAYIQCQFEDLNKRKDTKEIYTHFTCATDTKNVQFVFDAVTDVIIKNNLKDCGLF
Description: as §1, §2, §3

[3] = target: T3, GppNHp-bound Gαi1 (Homo sapiens, UniProt P63096); test: Bio-layer interferometry (BLI) binding; conditions: highest concentration tested
T3 construct: hexahistidine (N, cleaved yes); made in house; host or cells: Escherichia coli BL21(DE3)
T3 sequence (P63096 with tags, fused parts or gaps): as above
Description: as §1, §2, §3

[4] = target: Gαi (Homo sapiens, UniProt P63096); test: Nucleotide exchange step (GDP dissociation / GTPγS binding); format: biochemical; conditions: compared with Gαs
Chain of Gαi (P63096 whole entry): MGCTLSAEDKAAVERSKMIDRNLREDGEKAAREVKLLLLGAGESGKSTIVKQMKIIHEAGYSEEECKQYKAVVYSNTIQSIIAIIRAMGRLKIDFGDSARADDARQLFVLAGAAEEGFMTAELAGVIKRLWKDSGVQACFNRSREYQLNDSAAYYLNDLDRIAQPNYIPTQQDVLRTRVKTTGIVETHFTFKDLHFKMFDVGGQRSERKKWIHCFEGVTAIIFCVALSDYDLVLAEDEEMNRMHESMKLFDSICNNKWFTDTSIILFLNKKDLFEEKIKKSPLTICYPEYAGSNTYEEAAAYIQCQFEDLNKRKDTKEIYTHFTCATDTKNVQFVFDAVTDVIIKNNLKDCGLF
Description: (§4) Gα proteins were diluted to 400 nM in the EDTA buffer (20 mM HEPES 7.5, 150 mM NaCl, 1 mM EDTA-Na 8.0, 2 mM DTT). [^3H]GDP (1 mCi/mL, 25.2 μM) was added to a final concentration of 1.2 μM, followed by cyclic peptides addition. After incubation at 20° C. for 30 minutes, the same volume of assay buffer ([…] HEPES-Na 7.5, 150 mM NaCl, 2 mM MgCl2, and 1 mM GDP) was added to initiate [^3H]GDP dissociation. At various points, […] was removed and mixed with 390 μL of ice-cold wash buffer (20 mM HEPES 7.5, 150 mM NaCl, 20 mM MgCl2). The mixture was immediately filtered through a mixed cellulose membrane (25 mm, 0.22 μm) held by a microanalysis filter holder (EMD Millipore). The membrane was washed by ice-cold wash buffer (500 μL×3), put in a 6-mL plastic vial and air-dried (room temperature 1.5 h). 5 mL of CytoScint-ES Liquid Scintillation Cocktail was added to each vial. After incubation overnight at room temperature, the vial was used for liquid scintillation counting with a LS 6500 Multi-Purpose Scintillation Counter.
Gα proteins were diluted to 10 μM with dilution buffer (20 mM HEPES 7.5, 150 mM NaCl, 1 mM MgCl2, 2 mM DTT, and 20 μM GDP) and incubated with 5× stocks of cyclic peptides at room temperature for 2 hours. GTPγS binding was initiated by mixing with the reaction buffer at room temperature (50 nM [35S]GTPγS and 100 μM GTPγS in dilution buffer) at room temperature. […]

[5] = target: T4, Gαs (Homo sapiens, UniProt P63092); test: GDP dissociation assay ([3H]GDP); format: biochemical; set-up: made in house; host or cells: Escherichia coli BL21(DE3)
T4 sequence (P63092 1-380 isoform P63092-2): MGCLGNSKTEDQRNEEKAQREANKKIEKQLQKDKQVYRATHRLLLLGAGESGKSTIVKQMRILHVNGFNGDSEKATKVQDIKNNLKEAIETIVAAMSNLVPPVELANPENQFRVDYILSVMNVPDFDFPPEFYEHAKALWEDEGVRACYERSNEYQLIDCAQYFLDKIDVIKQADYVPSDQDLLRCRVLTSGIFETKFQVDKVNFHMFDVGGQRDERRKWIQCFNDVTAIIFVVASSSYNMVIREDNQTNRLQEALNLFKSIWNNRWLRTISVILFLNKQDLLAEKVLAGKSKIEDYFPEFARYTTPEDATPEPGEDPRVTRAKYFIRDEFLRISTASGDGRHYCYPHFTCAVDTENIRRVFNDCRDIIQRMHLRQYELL
Description: as §4
The GDP dissociation curves were fitted by the software GraphPad Prism using the following equation to calculate the dissociation rates (koff): […]
in which “Y” is the radioactivity (Counts per minute) of the sample at time “X” (minutes), and Y0 is the calculated radioactivity of the sample at the time point 0.

[6] = target: T4, Gαs; test: GTPγS binding assay ([35S]GTPγS); format: biochemical; set-up: made in house; host or cells: Escherichia coli BL21(DE3)
Description: Gα proteins were diluted to 10 μM with dilution buffer (20 mM HEPES 7.5, 150 mM NaCl, 1 mM MgCl2, 2 mM DTT, and 20 μM GDP) and incubated with 5× stocks of cyclic peptides at room temperature for 2 hours. GTPγS binding was initiated by mixing with the reaction buffer at room temperature (50 nM [35S]GTPγS and 100 μM GTPγS in dilution buffer) at room temperature. At various time points, 10 μL of the sample was removed and mixed with 390 μL of ice-cold wash buffer (20 mM HEPES 7.5, 150 mM NaCl, 20 mM MgCl2). The mixture was filtered through a mixed cellulose membrane (25 mm, 0.22 μm). The membrane was washed by ice-cold wash buffer (500 μL×3), put in a 6-mL plastic vial and air-dried (room temperature 1.5 h). 5 mL of CytoScint-ES Liquid Scintillation Cocktail (MP Biomedicals) was added to each vial. After incubation overnight at room temperature, the vial was used for liquid scintillation counting with a LS 6500 Multi-Purpose Scintillation Counter. A standard curve was generated using [35S]GTPγS. The radioactive activity (Counts per minute) of the samples were converted to the GTPγS concentration. The GTPγS binding curves were fitted by the software GraphPad Prism using the following equation to calculate the apparent GTPγS binding rates (kapp): […]
in which “Y” is the concentration of GTPγS that bound to Gα protein at time “X” (minutes).

[7] = target: GppNHp-bound Gαs (Homo sapiens, UniProt P63092); test: Bio-layer interferometry (BLI) binding kinetics; set-up: hexahistidine (N, cleaved yes); made in house; host or cells: Escherichia coli BL21(DE3); conditions: highest concentration tested
Chain of GppNHp-bound Gαs (P63092 with tags, fused parts or gaps isoform P63092-2): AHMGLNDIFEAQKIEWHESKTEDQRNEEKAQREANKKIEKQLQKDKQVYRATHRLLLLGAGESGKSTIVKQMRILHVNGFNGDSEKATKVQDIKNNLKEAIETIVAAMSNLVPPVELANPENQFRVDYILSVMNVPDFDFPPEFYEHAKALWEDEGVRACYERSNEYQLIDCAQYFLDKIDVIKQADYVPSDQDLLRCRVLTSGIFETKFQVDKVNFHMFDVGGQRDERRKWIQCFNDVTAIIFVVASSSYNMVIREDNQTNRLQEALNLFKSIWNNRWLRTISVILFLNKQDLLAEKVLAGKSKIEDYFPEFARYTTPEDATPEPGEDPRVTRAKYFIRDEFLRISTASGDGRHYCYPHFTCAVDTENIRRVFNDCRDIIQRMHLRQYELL
Description: as §1, §2, §3

[8] = system: HeLa cells stably expressing HaloTag; test: Chloroalkane penetration assay (CAPA); format: in vitro ADME, human
Excerpt: We first tested the cell permeability of GD20, as peptide-based chemical probes often suffer from poor cell permeability. […] In order to quantitatively evaluate the cell permeability of GD20, we used a recently developed HaloTag-based assay known as a chloroalkane penetration assay (CAPA) (Figure S6I) (Peraro et al., 2018). HeLa cells stably expressing HaloTag localized to the mitochondrial outer membrane were pulsed with chloroalkane-tagged molecules (ct-molecule), washed, chased with chloroalkane-tagged TAMRA fluorophore (ct-TAMRA), and finally analyzed by flow cytometry. A lower ct-TAMRA fluorescent signal indicates competition from a higher cytosolic concentration of ct-molecule. The carboxyl terminus of GD20 (G15) was conjugated with a chloroalkane tag to make ct-GD20 (FIG. 23A).
The cell lines used for CAPA were HeLa cell lines, generated by Chenoweth and co-workers, that stably express HaloTag exclusively in the cytosol (Peraro et al., 2018). Cells were seeded in a 96-well plate the day before the experiment at a density of 4×10^4 cells per well. The day of the experiment the media was aspirated, and 100 μL of cyclic peptide dilutions in DMEM were added to the cells. Plate was incubated for 19.5 h at 37° C. with 5% CO2. […] The cells were then trypsinized, quenched with DMEM, resuspended in PBS, and analyzed using a benchtop flow cytometer (CytoFLEX, Beckman).

[9] = target: T5, Biotinylated His/Avi-tagged Gαs used in the RaPID selection, GppNHp-bound (human, UniProt P63092 7-394, biotin on the Avi tag (BirA co-expressed)); test: RaPID comparison selection: peptide-mRNA-cDNA complexes on Gαs-immobilized streptavidin beads, qPCR and sequencing
T5 construct: Immobilized on streptavidin magnetic beads
T5 sequence (P63092 other isoform, or with tags, fused parts or gaps limits assumed): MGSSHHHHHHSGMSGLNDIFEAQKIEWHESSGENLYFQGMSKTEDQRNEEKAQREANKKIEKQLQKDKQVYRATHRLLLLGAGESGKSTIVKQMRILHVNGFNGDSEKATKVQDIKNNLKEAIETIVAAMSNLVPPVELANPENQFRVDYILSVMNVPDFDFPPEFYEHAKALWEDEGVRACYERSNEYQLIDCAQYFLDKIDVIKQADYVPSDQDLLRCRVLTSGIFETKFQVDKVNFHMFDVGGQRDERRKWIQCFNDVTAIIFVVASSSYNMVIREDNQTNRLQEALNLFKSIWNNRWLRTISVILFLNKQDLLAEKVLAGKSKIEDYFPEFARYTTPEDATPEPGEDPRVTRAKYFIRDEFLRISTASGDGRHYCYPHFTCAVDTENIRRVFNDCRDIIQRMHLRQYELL

[10] = target: Biotinylated Avi-tagged WT Gαs (residues 7-380 of the short isoform of human Gαs), GppNHp-bound (human) (UniProt P63092); test: TR-FRET competition: biotinylated Gαs WT (GppNHp-bound) with His-tagged adenylyl cyclase (VC1/IIC2) as the blocked partner; peptide concentration varied
Chain of Biotinylated Avi-tagged WT Gαs (residues 7-380 of the short isoform of human Gαs), GppNHp-bound (human) (P63092 other isoform, or with tags, fused parts or gaps limits assumed): as the sequence (P63092 with tags, fused parts or gaps isoform P63092-2) above

[11] = target: WT Gαs (purified, steady-state GTPase, GDP dissociation and GTPγS binding assays) (UniProt P63092-2 7-380); test: cell-based or functional assay
Chain of WT Gαs (purified, steady-state GTPase, GDP dissociation and GTPγS binding assays) (P63092 other isoform, or with tags, fused parts or gaps limits assumed): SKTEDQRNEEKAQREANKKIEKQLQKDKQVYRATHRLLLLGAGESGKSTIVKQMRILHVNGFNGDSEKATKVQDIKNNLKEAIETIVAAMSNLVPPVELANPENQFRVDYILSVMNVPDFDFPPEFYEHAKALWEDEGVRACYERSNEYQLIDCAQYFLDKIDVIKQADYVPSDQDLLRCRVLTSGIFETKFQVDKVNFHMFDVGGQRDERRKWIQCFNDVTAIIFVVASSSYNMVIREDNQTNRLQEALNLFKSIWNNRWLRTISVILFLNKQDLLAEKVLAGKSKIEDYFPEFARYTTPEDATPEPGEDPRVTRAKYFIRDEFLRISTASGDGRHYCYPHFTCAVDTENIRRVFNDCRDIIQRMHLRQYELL

[12] = target: T6, Biotinylated Avi-tagged WT Gαs (residues 7-380 of the short isoform of human Gαs), GDP-bound (human, UniProt P63092 7-394, biotin on the Avi tag (BirA)); test: TR-FRET competition: biotinylated GDP-bound Gαs WT against His-Gβγ(C68S)
T6 construct: Loaded with GDP; Same polypeptide as m7, other nucleotide state; also called biotinylated Gαs WT
T6 sequence (P63092 other isoform, or with tags, fused parts or gaps limits assumed): as the sequence (P63092 with tags, fused parts or gaps isoform P63092-2) above
Description: (§5) Biotinylated avi-Gαs (6-end, WT) and avi-Gαi (FL, WT) were diluted to 32 nM (8×) using assay buffer (1× PBS 7.4, 2 mM DTT, 0.1% BSA, 2 mM MgCl₂, 0.05% Tween plus 0.5 mM GDP), followed by mixing with a same volume of 8× streptavidin XL665 stock (32 nM in the assay buffer). 8× His-Gβ/γ (C68S) stock (16 nM) and 8× anti-6His-Tb cryptate stock (0.4 μg/mL) were added into the Gα/XL665 mixtures. Finally, 2× stocks of cyclic peptides were added with the protein mixtures. After incubation at room temperature for 2 hour at room temperature. […] FRET Signal was calculated as the ratio of [Read B]/[Read A].

[13] = target: T6, Biotinylated Avi-tagged WT Gαs …; test: TR-FRET competition: biotinylated Gαs or Gαi (GDP) against His-Gβγ(C68S)
Description: as §5

Kd [1]: 31.4 ± 0.7 nM
koff [1]: 0.00343 s⁻¹
kon [1]: 109000 M⁻¹ s⁻¹
binding to GDP-bound Gαi1 [2]: no detectable binding
binding to GppNHp-bound Gαi1 [3]: no detectable binding
sensitivity of the nucleotide exchange step of Gαi [4]: much less sensitive
effect on Gαs GDP dissociation rates (koff) [5]: drastically reducing
effect on the apparent rate of GTPγS binding (kapp) to Gαs [6]: drastically reducing
binding to GppNHp-bound Gαs [7]: no detectable binding
Molecule: CC[C@H](C)[C@@H]1NC(=O)[C@H](CC(C)C)NC(=O)[C@@H](Cc2ccc(O)cc2)NC(=O)CSC[C@@H](C(=O)NCC(N)=O)NC(=O)[C@@H]2CCCN2C(=O)[C@H](CC(C)C)NC(=O)[C@H](CC(N)=O)NC(=O)[C@H](Cc2ccccc2)NC(=O)[C@H](C)NC(=O)[C@H](Cc2c[nH]c3ccccc23)NC(=O)[C@H](CCC(N)=O)NC(=O)[C@H](CCCNC(=N)N)NC(=O)[C@H](Cc2ccccc2)NC(=O)[C@H]([C@@H](C)O)NC1=O [GD20] ({CH2CO}-[dY]LITFRQWAFNLPCG-NH2; thioether N-14)

cell permeability (CAPA) [8]: cell permeable
Molecule: CC[C@H](C)[C@@H]1NC(=O)[C@H](CC(C)C)NC(=O)[C@@H](Cc2ccc(O)cc2)NC(=O)CSC[C@@H](C(=O)NCC(=O)NCCOCCOCCCCCCCl)NC(=O)[C@@H]2CCCN2C(=O)[C@H](CC(C)C)NC(=O)[C@H](CC(N)=O)NC(=O)[C@H](Cc2ccccc2)NC(=O)[C@H](C)NC(=O)[C@H](Cc2c[nH]c3ccccc23)NC(=O)[C@H](CCC(N)=O)NC(=O)[C@H](CCCNC(=N)N)NC(=O)[C@H](Cc2ccccc2)NC(=O)[C@H]([C@@H](C)O)NC1=O [ct-GD20] ({CH2CO}-[dY]LITFRQWAFNLPCG-{NH(CH2CH2O)2(CH2)6Cl}; thioether N-14)

fold selectivity for GppNHp-bound over GDP-bound Gαs [9]: > 100 fold
IC50 (read off the curve) [10]: 200 nM
B1: GN10 (peptide)
peptide: Ac-[dY]HEQFDNFCDLWCG-NH2
modifications: thioether (positions not given here); also: thioether partner Cys9 or Cys13 not settled

IC50, inhibition of Gαs steady-state GTPase activity [11]: 1150 nM
IC50 [12]: 18.4 nM
fold selectivity for Gαs over Gαi [13]: ≥ 100 fold
B2: GD20 (peptide)
peptide: {CH2CO}-[dY]LITFRQWAFNLPCG-NH2
modifications: thioether N-14
SMILES: CC[C@H](C)[C@@H]1NC(=O)[C@H](CC(C)C)NC(=O)[C@@H](Cc2ccc(O)cc2)NC(=O)CSC[C@@H](C(=O)NCC(N)=O)NC(=O)[C@@H]2CCCN2C(=O)[C@H](CC(C)C)NC(=O)[C@H](CC(N)=O)NC(=O)[C@H](Cc2ccccc2)NC(=O)[C@H](C)NC(=O)[C@H](Cc2c[nH]c3ccccc23)NC(=O)[C@H](CCC(N)=O)NC(=O)[C@H](CCCNC(=N)N)NC(=O)[C@H](Cc2ccccc2)NC(=O)[C@H]([C@@H](C)O)NC1=O
notes: also called cyclic peptide GD20
